Source: ChEMBL document CHEMBL1133689, “7-Chloro-4,5-dihydro-8-(1,2,4-triazol-4-yl)-4-oxo-1,2,4-triazolo[1, 5-a]quinoxaline-2-carboxylates as novel highly selective AMPA receptor antagonists” (J Med Chem, 2000)
pIC50, pKi: −log10 of the molar value.

Tests used:
[1] = Compound was evaluated for inhibition of binding of [3H]glycine to specific binding at glycine receptor in rat cortical membrane; assay type: cell membranes
[2] = target: Glutamate receptor ionotropic, AMPA (Rattus norvegicus, UniProt P19490+P19491+P19492+P19493); test: Compound was evaluated for inhibition of binding of [3H]AMPA to specific binding at Ionotropic glutamate receptor AMPA in rat cortical membrane; assay type: cell membranes
[3] = target: Glutamate receptor ionotropic, kainate; test: Compound was evaluated for inhibition of binding of [3H]KA to specific binding at Ka receptor in rat cortical membrane; assay type: cell membranes
[4] = species: Mus musculus; test: Ability to inhibit depolarizations induced by NMDA in mouse cortical wedge preparations.; assay type: functional, organism-based
[5] = species: Mus musculus; test: Ability to inhibit depolarizations induced by AMPA in mouse cortical wedge preparations; assay type: functional, organism-based
[6] = target: Glutamate receptor ionotropic, kainate (Rattus norvegicus) (UniProt P22756+Q01812+P42260+P42264+Q63273); test: Compound was evaluated for inhibition of binding of [3H]KA to specific binding at Ka receptor in rat cortical membrane at 100 uM; assay type: cell membranes
[7] = Compound was evaluated for inhibition of binding of [3H]glycine to specific binding at glycine receptor in rat cortical membrane at 100 uM; assay type: cell membranes

Compound | pKi [1] | pKi [2] | pIC50 [3] | pIC50 [4] | pIC50 [5] | inhibition [6] [%] | inhibition [7] [%]
O=C(O)c1nc2c(=O)[nH]c3cc(Cl)c(-n4ccnc4)cc3n2n1 |  | 6.01 | 4.77 |  |  |  | 
CCOC(=O)c1nc2c(O)nc3cc(Cl)c(-n4ccnc4)cc3n2n1 |  | 5.64 |  | < 4.00 | 4.66 | 24 | 39
O=C(O)c1cc(O)c2c(Cl)cc(Cl)cc2n1 | 7.05 |  |  | 5.33 | 4.28 | 8 | 
CCOC(=O)c1nc2c(O)nc3cc(Cl)c(-n4cnnc4)cc3n2n1 |  | 6.15 |  | 4.00 | 4.82 | 42 | 15

Continued, values first:

pKi [1] | pKi [2] | pIC50 [3] | pIC50 [4] | pIC50 [5] | inhibition [6] [%] | inhibition [7] [%] | Compound
4.47 | 6.85 | 4.94 | 4.34 | 5.64 |  |  | O=C(O)c1nc2c(O)nc3cc(Cl)c(-n4cnnc4)cc3n2n1 [TQX-173]
 |  |  |  |  |  | 45 | O=C(O)c1nc2c(O)nc3cc(Cl)c(-n4ccnc4)cc3n2n1
 |  |  |  | 6.70 |  | 3 | NS(=O)(=O)c1cccc2c1c([N+](=O)[O-])cc1nc(O)c(O)nc12 [NBQX]
5.66 |  |  | 4.12 | 4.12 | 41 |  | O=C(O)c1nc2c(O)nc3cc(Cl)c([N+](=O)[O-])cc3n2n1
